Results from patent US9758492B2, “IDO inhibitors” (Bristol-Myers Squibb Company, priority 2013, dated 2017).

Biological target: T1, Human IDO1 (Homo sapiens, UniProt P14902)
T1 construct: expressed in transfected cells; host or cells: HEK293
Assay: IDO Kynurenine Assay with Human IDO1/HEK293 Cells
Type: cell-based
Conditions: read-out: HEK human IDO-1 (IC50)
Outline: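 HEK293 cells stably expressing human IDO1, in phenol red-free RPMI/10% FBS, exposed to compound for 20 h at 37 °C. Stopped with 0.2% TCA (50 °C, 30 min); kynurenine in supernatant detected with Ehrlich reagent, absorbance 490 nm.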

T1 sequence (P14902 whole entry): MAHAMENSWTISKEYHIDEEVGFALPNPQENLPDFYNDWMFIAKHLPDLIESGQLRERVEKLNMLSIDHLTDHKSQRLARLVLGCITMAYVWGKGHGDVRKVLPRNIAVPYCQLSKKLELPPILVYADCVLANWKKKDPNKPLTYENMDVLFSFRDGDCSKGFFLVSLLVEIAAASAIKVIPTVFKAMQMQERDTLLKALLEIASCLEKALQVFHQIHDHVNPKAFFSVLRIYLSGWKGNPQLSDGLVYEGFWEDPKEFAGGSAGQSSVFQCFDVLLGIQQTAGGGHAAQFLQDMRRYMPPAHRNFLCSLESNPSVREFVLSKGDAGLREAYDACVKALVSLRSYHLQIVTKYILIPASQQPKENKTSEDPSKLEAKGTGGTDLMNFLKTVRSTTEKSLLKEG

Row | SMILES | IC50
1 | Cc1ccc(NC(=O)Nc2cc(-c3ccccc3-c3nnn[nH]3)c(F)cc2N(CC(C)C)CC(C)C)cc1 [Example 429] | 5.55 nM
2 | Cc1ccc(NC(=O)Nc2cc(-c3cccc(Cl)c3C(=O)O)ccc2N(CC(C)C)CC(C)C)cc1 [Example 492] | 160 nM
3 | COC(C)(C)CCN(c1ccc(-c2cc(F)ccc2C(=O)O)cc1NC(=O)Nc1ccc(C)cc1)C1CCCCC1 [Example 421] | 3300 nM
4 | Cc1cccc(NC(=O)Nc2cc(-c3cc(F)ccc3C(=O)O)c(F)cc2N(CC(C)C)C2CCCCC2)c1 [Example 516, 4′-(Cyclohexyl(isobutyl)amino)-2′,5-difluoro-5′-(3-(m-tolyl)ureido)-[1,1′-biphenyl]-2-carboxylic acid] | 50 nM
5 | CC(C)CN(c1c(F)cc(-c2cc(F)ccc2C(=O)O)cc1NC(=O)Nc1ccc(Cl)cc1F)C1CCCCC1 [Example 434] | 3.7 nM
6 | COc1ccc(-c2ccc(N(CC(C)C)CC(C)C)c(NC(=O)Nc3ccc(C#N)nc3)c2)c(C(=O)O)c1 [Example 498] | 590 nM
7 | C=C(C)CN(CCCC(F)(F)F)c1ccc(-c2ccccc2-c2nnn[nH]2)cc1NC(=O)Nc1ccc(C)cc1 [Example 417] | 1.89 nM
8 | Cc1ccc(NC(=O)Nc2cc(-c3ccccc3C(=O)O)ccc2N(CCCC(F)(F)F)C2CCCCC2)cc1 [Example 416] | 100 nM
9 | Cc1ccc(NC(=O)Nc2cc(-c3ccccc3-c3nnn[nH]3)ccc2N(CC(C)C)CC(C)C)cn1 [Example 395] | 70 nM
10 | Cc1ccc(C(=O)O)c(-c2ccc(N(CC(C)C)CC(C)C)c(NC(=O)Nc3ccc(Cl)cc3F)c2)c1 [Example 527, 3′-(3-(4-Chloro-2-fluorophenyl)ureido)-4′-(diisobutylamino)-5-methyl-[1,1′-biphenyl]-2-carboxylic acid] | 40 nM
11 | CC(C)CN(c1cc(F)c(-c2cc(F)ccc2C(=O)O)cc1NC(=O)Nc1ccc(C(F)(F)F)cc1F)C1CCCCC1 [Example 392] | 10 nM
12 | CC(C)CN(c1cc(F)c(-c2cc(F)ccc2C(=O)O)cc1NC(=O)Nc1ccc(OC(F)(F)F)cc1)C1CCCCC1 [Example 485] | 5.75 nM
13 | CC(C)CN(c1cc(F)c(-c2cc(F)ccc2C(=O)O)cc1NC(=O)Nc1ccnnc1)C1CCCCC1 [Example 402] | 4830 nM
14 | Cc1ccc(NC(=O)Nc2cc(-c3cc(F)ccc3C(=O)O)ccc2N(C2CC2)C2CC2)cc1 [Example 541, 4′-(Dicyclopropylamino)-5-fluoro-3′-(3-(p-tolyl)ureido)-[1,1′-biphenyl]-2-carboxylic acid] | 3430 nM
15 | Cc1ccc(NC(=O)Nc2cc(-c3cc(F)ccc3C(=O)O)ccc2N(CCOC(C)C)CC(C)C)cc1 [Example 466] | 1740 nM
16 | CC(C)CN(CC(C)C)c1ccc(-c2ccc(Cl)cc2C(=O)O)cc1NC(=O)Nc1ccc(C#N)nc1 [Example 359, 4-Chloro-3′-(3-(6-cyanopyridin-3-yl)ureido)-4′-(diisobutylamino)-[1,1′-biphenyl]-2-carboxylic acid] | 550 nM
17 | Cc1ncc(NC(=O)Nc2cc(-c3cc(F)ccc3C(=O)O)c(F)cc2N(CC(C)C)C2C[C@H]3CC[C@@H]2C3)cn1 (stereo partly drawn) [Example 413] | 1960 nM
18 | Cc1cnc(NC(=O)Nc2cc(-c3cc(F)ccc3C(=O)O)c(F)cc2N(CC(C)C)C2CCCCC2)cn1 [Example 525, 4′-(Cyclohexyl(isobutyl)amino)-2′,5-difluoro-5′-(3-(5-methylpyrazin-2-yl)ureido)-[1,1′-biphenyl]-2-carboxylic acid] | 90 nM
19 | CC(C)CN(c1c(F)cc(-c2ccccc2-c2nnn[nH]2)cc1NC(=O)Nc1ccccc1F)C1CCCCC1 [Example 430] | 0.606 nM
20 | CC(C)CN(c1cc(F)c(-c2cc(F)ccc2C(=O)O)cc1NC(=O)Nc1ccc(C2CCCCC2)cc1)C1CCCCC1 [Example 523, 4′-(Cyclohexyl(isobutyl)amino)-5′-(3-(4-cyclohexylphenyl)ureido)-2′,5-difluoro-[1,1′-biphenyl]-2-carboxylic acid] | 5520 nM
21 | C=C(C)CN(c1ccc(-c2cc(F)ccc2C(=O)O)cc1NC(=O)Nc1ccc(C)cc1)C1CCCCC1 [Example 461] | 4.24 nM
